Like-named read-outs stand apart in the source and are kept apart here. One block for each molecule: values may come before it.
Test system: α7 integrin promoter
Assay: muscle cell-based assay: α7βgal+/− myoblasts/myotubes, LacZ reporter, β-galactosidase cleavage of FDG
Design: species or system mouse; Results in α7+/− β-galactosidase assay: scale not given here
Conditions: for EC50: given as log AC50 (negative values), read-out: Fit LogAC50 (converted); for Fit Curve Class: key not given; for Results in α7+/− β-galactosidase assay: Myoblasts
Procedure, shortened: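 Fluorescein generated from FDG by β-galactosidase reports α7 integrin promoter activity in differentiated myoblasts from α7+/− LacZ knock-in pups. Screening hits then went to dose-response, western blotting and a myostatin counterscreen.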

[1] = curve fit, activity at zero concentration

SMILES: Cc1nnc(-c2ccc(N3CCOCC3)c([N+](=O)[O-])c2)o1 [drawing 338]
Results in a α7+/− β-galactosidase assay, Myotubes, 0.5 uM (Myotubes, compound at 0.5 uM): 0.0728
Results in a α7+/− β-galactosidase assay, Myotubes, 1 uM (Myotubes, compound at 1 uM): 0.1596
Results in a α7+/− β-galactosidase assay, Myotubes, 5 uM (Myotubes, compound at 5 uM): −0.09085
Results in a α7+/− β-galactosidase assay, Myotubes, 10 uM (Myotubes, compound at 10 uM): −0.1238
Results in a α7+/− β-galactosidase assay, Myotubes, 20 uM (Myotubes, compound at 20 uM): 0.04847
Results in a α7+/− β-galactosidase assay, Myotubes, 40 uM (Myotubes, compound at 40 uM): −0.1846

SMILES: COc1ccc(-c2c[nH]nc2-c2ccc(OC)cc2)cc1 [drawing 389]
Results in a α7+/− β-galactosidase assay, Myotubes, 0.5 uM: −0.01143
Results in a α7+/− β-galactosidase assay, Myotubes, 1 uM: 0.1883
Results in a α7+/− β-galactosidase assay, Myotubes, 5 uM: 0.3888
Results in a α7+/− β-galactosidase assay, Myotubes, 10 uM: 0.8585
Results in a α7+/− β-galactosidase assay, Myotubes, 20 uM: 0.03803
Results in a α7+/− β-galactosidase assay, Myotubes, 40 uM: −0.2518

EC50 (Mus musculus): 10 µM
SMILES: O=C(CCc1ccccc1)c1nnc(-c2ccccc2)o1 [Compound 183]
Score (Table 12 compound data): 42
Fit Curve Class (curve class number): 2.1
Fit HillSlope (curve fit): 4.4495
Fit Zero Activity [%] [1]: 1.0471%

SMILES: CCOc1ccccc1NC(=O)COC(=O)CNS(=O)(=O)c1ccc(C)cc1 [drawing 440]
Results in a α7+/− β-galactosidase assay, Myotubes, 0.5 uM (Myotubes, compound at 0.5 uM): −0.09293
Results in a α7+/− β-galactosidase assay, Myotubes, 1 uM (Myotubes, compound at 1 uM): 0.0165
Results in a α7+/− β-galactosidase assay, Myotubes, 5 uM (Myotubes, compound at 5 uM): −0.2547
Results in a α7+/− β-galactosidase assay, Myotubes, 10 uM (Myotubes, compound at 10 uM): −0.2483
Results in a α7+/− β-galactosidase assay, Myotubes, 20 uM (Myotubes, compound at 20 uM): −0.1393
Results in a α7+/− β-galactosidase assay, Myotubes, 40 uM (Myotubes, compound at 40 uM): −0.07634

SMILES: COc1ccc(C(=O)Cn2nnc(-c3ccccc3NC(=O)c3ccco3)n2)cc1 [drawing 673]
Results in α7+/− β-galactosidase assay (0.5 uM): 0.4054
Results in α7+/− β-galactosidase assay (1 uM): 0.1958
Results in α7+/− β-galactosidase assay (5 uM): −0.2666
Results in α7+/− β-galactosidase assay (10 uM): −0.3483
Results in α7+/− β-galactosidase assay (20 uM): −0.6016
Results in α7+/− β-galactosidase assay (40 uM): −0.7762

EC50 (Mus musculus): 11.2 µM
SMILES: C=CCn1c(COc2ccc(Cl)cc2)nnc1SCc1ccc(C#N)cc1 [Compound 220]
Score (Table 12 compound data): 42
Fit Curve Class (curve class number): 2.1
Fit HillSlope (curve fit): 3.2975
Fit Zero Activity [%] [1]: 8.1688%

SMILES: C/C(CC(=O)Nc1ccc(Cl)c(C(F)(F)F)c1)=N\NC(=O)c1cnccn1 [Compound 38]
AC50 (Mus musculus, Table 12, log of AC50, given with negative sign, unit of AC50 not given, read-out: Fit Log AC50 (converted)): 4.47 µM
Emax (Mus musculus, read-out: Max Response [%]): 72.7%
Fit HillSlope (Table 12, curve fit): 4.9549
Fit Zero Activity [%] (Table 12, fitted activity at zero concentration): −2.0156%
Fit Curve Class (Table 12): 1.2
Score (Table 12 Compound data, concentration-response curve fit): 63

SMILES: Cc1ccc(NS(=O)(=O)c2ccc(-c3ccc(O)nn3)o2)c(C)c1 [drawing 477]
Results in a α7+/− β-galactosidase assay, Myotubes, 0.5 uM (Myotubes, compound at 0.5 uM): −0.04997
Results in a α7+/− β-galactosidase assay, Myotubes, 1 uM (Myotubes, compound at 1 uM): 0.003075
Results in a α7+/− β-galactosidase assay, Myotubes, 5 uM (Myotubes, compound at 5 uM): −0.3008
Results in a α7+/− β-galactosidase assay, Myotubes, 10 uM (Myotubes, compound at 10 uM): −0.389
Results in a α7+/− β-galactosidase assay, Myotubes, 20 uM (Myotubes, compound at 20 uM): −0.09047
Results in a α7+/− β-galactosidase assay, Myotubes, 40 uM (Myotubes, compound at 40 uM): −0.1539

SMILES: CCc1c(C)sc(NC(=O)c2ccco2)c1C#N [drawing 528]
Results in α7+/− β-galactosidase assay (0.5 uM): 0.08233
Results in α7+/− β-galactosidase assay (1 uM): 0.08072
Results in α7+/− β-galactosidase assay (5 uM): 0.4585
Results in α7+/− β-galactosidase assay (10 uM): 0.07353
Results in α7+/− β-galactosidase assay (20 uM): 0.153
Results in α7+/− β-galactosidase assay (40 uM): 0.1981

SMILES: OC(c1nc2cc(F)ccc2[nH]1)C(O)c1nc2cc(F)ccc2[nH]1 (stereo not shown) [drawing 573]
Results in α7+/− β-galactosidase assay (0.5 uM): 0.08093
Results in α7+/− β-galactosidase assay (1 uM): 0.2145
Results in α7+/− β-galactosidase assay (5 uM): −0.08597
Results in α7+/− β-galactosidase assay (10 uM): −0.1055
Results in α7+/− β-galactosidase assay (20 uM): 0.001076
Results in α7+/− β-galactosidase assay (40 uM): −0.1048

SMILES: CC1(C)Cc2c(cnn2-c2cccc(F)c2)C(NC(=O)CCc2cnccn2)C1 (stereo not shown) [drawing 534]
Results in α7+/− β-galactosidase assay (0.5 uM): 0.2096
Results in α7+/− β-galactosidase assay (1 uM): 0.1101
Results in α7+/− β-galactosidase assay (5 uM): −0.01619
Results in α7+/− β-galactosidase assay (10 uM): −0.03841
Results in α7+/− β-galactosidase assay (20 uM): 0.02411
Results in α7+/− β-galactosidase assay (40 uM): −0.09429

SMILES: Cc1cc(C)cc(OCC(=O)N/N=C/c2ccccn2)c1 [drawing 547]
Results in α7+/− β-galactosidase assay (0.5 uM): 0.02525
Results in α7+/− β-galactosidase assay (1 uM): 0.04969
Results in α7+/− β-galactosidase assay (5 uM): 0.0722
Results in α7+/− β-galactosidase assay (10 uM): −0.00591
Results in α7+/− β-galactosidase assay (20 uM): 0.8477
Results in α7+/− β-galactosidase assay (40 uM): −0.1757

— patent US10028992B2, “Methods of treating muscular dystrophy” (BOARD OF REGENTS OF THE NEVADA SYSTEM OF HIGHER EDUCATION …, priority 2012, dated 2018)
